ChEMBL document CHEMBL1137806, “Cytotoxic oxoisoaporphine alkaloids from Menispermum dauricum” (J Nat Prod, 2001)

Experiments:
Type in all cases: functional, cell-based
MCF7 = assay: Cytotoxicity against human MCF7 cells by MTT assay
P388 = assay: Cytotoxicity against mouse P388 cells by MTT assay
HL-60 = assay: Cytotoxicity against human HL60 cells by MTT assay
A549 = assay: Cytotoxicity against human A549 cells by MTT assay

| SMILES | IC50 (MCF7) | IC50 (P388) | IC50 (HL-60) | IC50 (A549) |
| --- | --- | --- | --- | --- |
| COc1ccc2c(c1)C(=O)c1c(NCCc3ccc(O)cc3)c(OC)cc3ccnc-2c13 [DAURIOXOISOPORPHINE A] | 3 µM | 30.5 µM | > 50 µM | 8.8 µM |
| COc1ccc2c(c1)C(=O)c1c(N)c(OC)c(OC)c3ccnc-2c13 [DAURIOXOISOPORPHINE B] | 6.2 µM | 9.6 µM | > 50 µM | > 50 µM |
| COc1cc([C@@H]2c3cc4c(cc3[C@@H](O[C@@H]3O[C@@H]5CO[C@@H](C)O[C@H]5[C@H](O)[C@H]3O)[C@H]3COC(=O)[C@H]23)OCO4)cc(OC)c1O [ETOPOSIDE] | 12.3 µM | 0.1 µM | 5.4 µM | 0.5 µM |
